{"source": "patent US20060142287A1", "about": "“Use of a combination of dppe with other chemotherapeutic agents for the treatment of breast cancer” (priority 2002, published 2006)", "test_system": "patients with metastatic and/or recurrent breast cancer", "experiment": "Phase III clinical trial of DPPE/doxorubicin versus doxorubicin alone, overall survival", "assay_type": "in vivo, human", "description": "In the treatment of stage I or II breast cancer, the diphenyl compound preferably is used in an amount of about 3 to about 10 mg/kg of patient, administered intravenously over a period of about 30 to about 90 minutes prior to administration of the chemotherapeutic agent(s) and continuing for the period of administration of the chemotherapeutic agent(s). In the specific Phase III clinical trial described herein conducted on patients with metastatic and/or recurrent breast cancer, there was employed 5.3 mg/kg of DPPE in the form of the base (equivalent to 6 mg/kg of DPPE in the form of its hydrochloride), administered intravenously as an aqueous solution thereof over 80 minutes, with the last twenty minutes being accompanied by infusion of the specific chemotherapeutic agent.\nThe chemotherapy agent active in breast cancer which is employed herein preferably is used in a total amount of about 50 to about 75 mg/M^2 of patient for doxorubicin or epirubicin, about 175 to about 225 mg/M^2 for Taxol and about 75 to about 100 mg/M^2 for Taxotere. In the specific Phase III clinical trial described herein conducted on patients with metastatic and/or recurrent breast cancer, there was employed 60 mg/M^2 of doxorubicin administered over the last 20 minutes of infusion of the DPPE solution.\nPatients were treated with doxorubicin (DOX) alone or a combination of doxorubicin and DPPE. […]\nThe survival time for patients was determined for those patients with metastatic breast cancer receiving no prior chemotherapy treatment in relation to those who had received prior chemotherapy treatment, and for patients that had received no previous treatment type (namely, chemotherapy, radiotherapy and/or hormone treatment) and those who had received previous treatment. The survival times were determined for patients receiving the DPPE/DOX combination and DOX alone.", "data": [{"molecule": "COc1cccc2c1C(=O)c1c(O)c3c(c(O)c1C2=O)C[C@@](O)(C(=O)CO)C[C@@H]3O[C@H]1C[C@H](N)[C@H](O)[C@H](C)O1", "note": "[DOX, doxorubicin]", "values": [{"measurement": "median overall survival", "setting": "patients with metastatic disease who had estrogen receptor-negative tumors, FIG. 3", "result": 9.3, "unit": "months"}, {"measurement": "median overall survival", "setting": "patients with metastatic disease who had no previous chemotherapy, DPPE 5.3 mg/kg iv over 80 min, doxorubicin 60 mg/M^2 over last 20 min, FIG. 1", "result": 16.2, "unit": "months"}, {"measurement": "median overall survival", "setting": "patients with metastatic disease who had no previous treatment (chemotherapy, radiotherapy and/or hormone treatment), FIG. 2", "result": 15, "unit": "months"}]}]}
